Measurements: publication PMC11022737, “Targeting GRP75 with a Chlorpromazine Derivative Inhibits Endometrial Cancer Progression Through GRP75–IP3R‐Ca^2+‐AMPK Axis” (Advanced Science, 2024)
Where two headings read alike, the source gives them in different places.

Assays:
[1] = design: method as in PMID 35868106; settings: cited from earlier work
[2] = pharmacokinetic assay in SD rats (PO, IP, IV); assay type: in vivo; settings: male, rat, plasma
Description: Three male SD rats (208–259 g, 6–8 weeks) per group were purchased from JH Laboratory Animal Co. LTD. All rats were raised under controlled temperature and humidity conditions and had free access to food and water. […] Each rat was injected with a combination solution at doses of 2, 10, and 5 mg kg^−1 for IV, PO, and IP, respectively. Blood samples collected in anticoagulant (K2EDTA)‐containing tubes at 0.25, 0.5, 1, 2, 4, 8, and 24 h after injection were centrifuged at 2000 × g at 4 °C for 5 min to obtain plasma. LC‐MS/MS analysis of samples was carried out using an ACQUITY UPLC HSS T3 1.8 µm column. The mobile phase was a mixture of phase A (0.1% formic acid in water) and phase B (0.1% formic acid in acetonitrile), which ran in gradient mode at a flow rate of 0.6 mL min^−1 at 60 °C. Mass spectra were obtained on an API6500 triple quadrupole equipped with an ESI source. Glipizide was used as an internal standard. The plasma concentrations of the compounds were analyzed, and the pharmacokinetic parameters were calculated via WinNonlin.

[3] = water solubility; assay type: physicochemical
[4] = target: T1, GRP75 (Homo sapiens, UniProt P38646); test: microscale thermophoresis (MST) binding assay; settings: His-tagged recombinant GRP75 50 nmol L−1, n = 3; read-out: K d, binding to GRP75 (MST)
T1 construct: purchased Zoonbio Biotechnology Co., Ltd. (Nanjing, China); host or cells: E. coli
Description: Purified GRP75 protein was obtained by Zoonbio Biotechnology Co., Ltd. (Nanjing, China). Recombinant His‐tagged GRP75 protein was labeled with RED‐tris‐NTA second generation dye solution (MO‐L018, NanoTemper Technologies), according to the manufacturer's instructions. […] All samples were diluted in 1× PBST and contained the same amount of DMSO. The K d was determined in MO. Control using the K d fit.

[5] = system: endometrial cancer organoid (ECO); test: anti-proliferation in endometrial cancer organoid (ECO) model; assay type: cell-based; settings: Homo sapiens, n = 3, mean ± SD
Description: ECO cultures were established as described previously.^[ [50] ^] Biopsies were cut into small pieces and extensively rinsed in phosphate‐buffered saline (PBS; HyClone, SH30256.01) containing 2% penicillin–streptomycin solution (Thermo Fisher Scientific, 10 010 023). Tissues were incubated in TrypLE (1x; Thermo Fisher Scientific, 12 604 013) supplemented with rock inhibitor for 20 min and then mechanically sheared to obtain a cell suspension. Digestion was stopped by dilution with equal amounts of DMEM/F12 and centrifuged at 1300 rpm for 5 min at 4 °C. The pellet was resuspended in Matrigel (Corning, 356 231, Corning, NY, USA), and 30 µL droplets were deposited in pre‐warmed 24‐well plates. ECOs were cultured as described previously.^[ [51] ^] For passages (performed every 10–20 d), organoids were recovered via liquefaction of the Matrigel drops with ice‐cold DMEM/F12 to ensure maximum organoid collection. Subsequently, ECOs were dissociated by repeated pipetting using TrypLE (in DMEM/F12 containing rock inhibitor), and the mixture was centrifuged at 1300 rpm. […]
EC cells were seeded into 96‐well plates at a concentration of 8 × 10^3 cells well^−1 in a 100 µL volume and cultured overnight. […] Absorbance at 450 nm was measured using a microplate reader (BioTek Synergy H1, Agilent Technologies, Santa Clara, CA, USA).

[6] = plasma protein binding using equilibrium dialysis; assay type: in vitro ADME
Source text: Plasma protein binding using equilibrium dialysis: A 96-well equilibrium dialysis device and HTD 96 a/b regenerated cellulose membrane strips with a molecular mass cutoff of 12–14 kDa were obtained from HTDialysis LLC (Gales Ferry, CT). The dialysis device was assembled following the manufacturer's instructions.

[7] = system: EC cells (ISK); test: MAM integrity and mitochondrial Ca2+ (TEM, confocal imaging) in EC cells; assay type: cell-based, human
Description: EC cells were fixed with 2.5% glutaraldehyde in sodium cacodylate buffer (0.1 mol L^−1, pH 7.2) at 4 °C overnight and post‐fixed for 1 h in 1% osmium tetroxide. Samples were stained for 1 h with 1% uranyl acetate in water before dehydration and embedding in the TAAB resin. Images were obtained using a transmission electron microscope.
Co‐localization analysis of the ER and mitochondria was conducted as previously described.^[ [64], [65] ^] EC cells grown on glass slides were loaded with Mito‐Tracker Red (0.3 µmol L^−1) and ER‐Tracker Green (1 µmol L^−1) at 37 °C for 30 min. Images were captured using a confocal microscope equipped with a 100× oil immersion objective (excitation at 488 and 594 nm, emission at 505–530 and >560 nm, respectively). Co‐localization of the ER and mitochondria was quantified as Manders’ co‐localization coefficient (MCC) using ImageJ software with a JACoP plugin. MCCs were calculated according to the fraction of mitochondrial pixels in contact with the ER (with a higher value representing more co‐localization). The co‐localization of Rhod‐2 (red fluorescent signal, 4 µmol L^−1) with Mito‐Tracker Green (0.3 µmol L^−1) in the live cells was performed as described above.

[8] = system: ISK and KLE cells; test: Seahorse glycolytic rate assay (ECAR); assay type: cell-based, human; settings: 10 µM
Description: The ECAR and OCR were measured using the Seahorse XF Glycolysis Stress Test Kit or Seahorse XF Cell Mito Stress Test Kit on the Seahorse XF 96 Extracellular Flux Analyzer (Seahorse Bioscience, North Billerica, MA, USA), according to the manufacturer's introductions. […] Glucose, oligomycin, and 2‐deoxy‐glucose were used to determine the ECAR values, whereas oligomycin, carbonyl cyanide‐p‐trifluoromethoxyphenylhydrazone, and rotenone were used to measure the OCR.

[9] = system: ISK cells xenograft tumors; test: ISK tumor xenograft in nude mice; assay type: in vivo, BALB/c nude mice
Source text: All animal experiments were approved by the Committee on the Ethics of Animal Experiments of Shanghai Jiao Tong University, China (GKLW 2018–40). Female BALB/c nude mice (at least 5 weeks old) were procured from a commercial supplier (JieSiJie, Shanghai, China) through the Department of Laboratory Animal Science at Shanghai Jiaotong University School of Medicine. Mice were maintained under standard conditions and cared for according to the institutional guidelines for animal care. EC cells resuspended in PBS were mixed with Matrigel (BD Biosciences) in equal volume and then subcutaneously injected into the armpits of the nude mice. […] The dose of the compound injected into the mice was slightly adjusted following the methodology described in the previous study.^[ [7] ^] Every 2 d, the length (L) and width (W) of each tumor were measured twice using an external Vernier caliper for automatic reading, where the larger of the two measurements was defined as L and the smaller as W. The tumor volume was calculated using Equation 1, as follows: (1) V=0.52×L×W^2
HSP‐70 ELISA kits were purchased from YuBo Biology. […] Equal amounts of diluted protein supernatant were used, and the assay was conducted according to the manufacturer's instructions. The obtained absorbance values for protein levels were then transferred to in‐house data analysis software developed using the Windows Microsoft Excel platform to calculate the standard deviations for each group, and the average absorbance for each group was compared to the standardized controls. Each test group for each of the proteins of interest consisted of eight replicates. Assay‐specific controls were run with each plate to ensure optimal accuracy of the results.

[10] = system: AMPK signaling in ISK and KLE cells; test: Western blotting of p-AMPK and BIM; assay type: cell-based, human
Source text: EC cells were lysed in RIPA buffer (Epizyme, PC102, Ipsen Biopharmaceuticals, Cambridge, MA, USA) supplemented with a protease inhibitor cocktail. Samples were then quantified using a BCA kit (Epizyme, ZJ101), resolved by SDS‐PAGE, and blotted with primary antibodies and corresponding horseradish peroxidase‐conjugated secondary antibodies. The primary antibodies used included anti‐AMPK (1:1000 dilution), anti‐p‐AMPK (1:1000 dilution), anti‐BIM (1:1000 dilution), and anti‐GRP75 (1:1000 dilution) from Cell Signaling Technology (Beverly, MA, USA) and anti‐GAPDH (1:1500 dilution) from Yeason.

[11] = system: ISK and KLE cells; test: ATP production and α-KGDH activity in EC cells; assay type: cell-based, human; settings: 10 µmol L−1
Description: The intracellular ATP levels were then checked using an enhanced ATP kit (Beyotime Biotechnology, Jiangsu, China), in accordance with the manufacturer's instructions. The entire cell population, including any floating cells, was collected, lysed, and boiled to release the ATP for the assay, and the results were compared with those from the DMSO group (%).
Intracellular α‐KGDH activity levels were measured using an α‐KGDH activity assay kit (Solarbio, Beijing, China) according to the manufacturer's instructions. Briefly, the entire cell population, including any floating cells, was collected, milled, and the absorbance measured. The α‐KGDH activity was then determined using Equation 2 as follows: (2) α−KGDH=U/10^4cell=4.962×ΔAdetermination−ΔAblank

[12] = IP 5 mg kg−1, read-out: AUC 0–24 h
[13] = IP 5 mg kg−1, read-out: AUC 24 h−∞
[14] = IV 2 mg kg−1, read-out: AUC 0–24 h
[15] = IV 2 mg kg−1, read-out: AUC 24 h−∞
[16] = PO 10 mg kg−1, read-out: AUC 0–24 h
[17] = PO 10 mg kg−1, read-out: F (oral bioavailability)

T1 sequence (P38646 47-679): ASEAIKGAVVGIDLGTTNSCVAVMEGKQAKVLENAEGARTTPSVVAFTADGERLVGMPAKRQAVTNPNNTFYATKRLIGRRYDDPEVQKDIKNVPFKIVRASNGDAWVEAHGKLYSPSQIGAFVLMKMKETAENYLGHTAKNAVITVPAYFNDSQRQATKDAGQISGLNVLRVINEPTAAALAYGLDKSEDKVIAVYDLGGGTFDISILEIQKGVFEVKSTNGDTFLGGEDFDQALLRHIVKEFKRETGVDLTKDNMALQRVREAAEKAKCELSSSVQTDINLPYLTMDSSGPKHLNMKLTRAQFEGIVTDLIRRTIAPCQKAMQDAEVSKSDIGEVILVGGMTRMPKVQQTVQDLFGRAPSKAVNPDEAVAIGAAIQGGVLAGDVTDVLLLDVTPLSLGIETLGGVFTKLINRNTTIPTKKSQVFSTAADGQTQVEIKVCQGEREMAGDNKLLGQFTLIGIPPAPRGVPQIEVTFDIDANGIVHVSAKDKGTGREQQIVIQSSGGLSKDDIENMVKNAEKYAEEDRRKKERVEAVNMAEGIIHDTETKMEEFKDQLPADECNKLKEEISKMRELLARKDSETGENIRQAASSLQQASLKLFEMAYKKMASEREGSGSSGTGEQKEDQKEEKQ

| IC50 [5] [µM] | SMILES | extrapyramidal side effects [1] | Cmax ([2]; IP 5 mg kg−1) [ng/mL] | Tmax ([2]; IP 5 mg kg−1) [h] | half-life ([2]; IP 5 mg kg−1) [h] | AUC(0-t) [2, 12] [ng·h/mL] | AUC(0-inf) [2, 13] [ng·h/mL] | bioavailability ([2]; IP 5 mg kg−1, read-out: F) [%] | clearance ([2]; IV 2 mg kg−1) [mL/min/kg] | half-life ([2]; IV 2 mg kg−1) [h] | AUC(0-t) [2, 14] [ng·h/mL] | AUC(0-inf) [2, 15] [ng·h/mL] | Cmax ([2]; PO 10 mg kg−1) [ng/mL] | Tmax ([2]; PO 10 mg kg−1) [h] | AUC(0-t) [2, 16] [ng·h/mL] | bioavailability [2, 17] [%] | other results |
| --- | --- | --- | --- | --- | --- | --- | --- | --- | --- | --- | --- | --- | --- | --- | --- | --- | --- |
| 6.39 ± 0.87 | Clc1ccc2c(c1)N(CCCCCN1CCC3(CCCCC3)CC1)c1ncccc1S2 [JX66] | minor | 10 ± 1.49 | 1.67 ± 0.57 | 10.1 ± 1.38 | 140 ± 35.3 | 170 ± 37.4 | 42.5 ± 13 | 265 | 5.1 ± 1.69 | 144 ± 75.9 | 153 ± 75.9 | 3.8 ± 1.29 | 5.5 ± 4.33 | 16 ± 2.65 | 2.23 ± 0.37 | water solubility [3]: poor; Kd [4]: 37.6 µM |
| 58.2 ± 7.62 | CN(C)CCCN1c2ccccc2Sc2ccc(Cl)cc21 [CPZ, chlorpromazine] | – | – | – | – | – | – | – | – | – | – | – | – | – | – | – | % Bound (plasma protein binding rate) [6]: 98.44%; fraction unbound [6]: 0.0156 |
| – | CN1CCN(CCCCCN2c3cc(Cl)ccc3Sc3cccnc32)CC1 [JX57] | minor | 3.04 ± 1.12 | 0.33 ± 0.14 | 3.06 ± 1.03 | 9.01 ± 7.03 | 14.2 ± 8.39 | 44.4 ± 34.6 | 2650 | 2.72 ± 0.9 | 8.12 ± 4.13 | 13.9 ± 5.43 | 11.3 ± 4.57 | 0.41 ± 0.14 | 41.5 ± 15.7 | 94.3 ± 46.9 | ER–mitochondrial distance (TEM) ([7]; EC cells (ISK), 10 µmol L−1): significantly expanded; [Ca2+]m levels ([7]; EC cells, 10 µmol L−1, confocal Rhod-2/Mito-Tracker): decreased; half-life ([2]; PO 10 mg kg−1): 4.03 ± 0.88 h; AUC(0-inf) ([2]; PO 10 mg kg−1, read-out: AUC 24 h−∞): 55.7 ± 24.3 ng·h/mL; glycolysis rate and glycolytic capacity (ECAR) [8]: markedly reduced; expression of GRP75 in xenograft tumors with ISK cells (ELISA) ([9]; 5 mg kg−1, n = 8): reduced; effects on GRP75-knockdown ISK tumor versus vehicle group ([9]; GRP75-deficient ISK cells in nude mice, 5 mg kg−1 i.p. daily, n = 6): not significantly different; anticancer effect in vivo on addition of the AMPK inhibitor compound C ([9]; JX57 5 mg kg−1 plus compound C 0.2 mg kg−1, n = 6): partially abolished; %Unbound [6]: 0.84%; p‐AMPK expression and BIM expression [10]: increased; cellular ATP levels [11]: reduced; α‐ketoglutarate activity [11]: reduced |
